Results: patent US20240101602A1, “ANTIMICROBIAL PEPTIDES AND METHOD OF PREVENTING OR TREATING INFECTION BY USING THE SAME” (priority 2020, published 2024)
In brackets after ≈: the same amount, converted by molar mass. Where two headings read alike, the source gives them in different places. Residues, ends and D or L forms follow the SMILES beside them. *: point of attachment. Myristoyl = CCCCCCCCCCCCCC(=O)*

What was measured:
[1] = system: Cgl FST02; type: cell-based, Colletotricum gloeosporioides
Protocol: (§1) The experiments were conducted in an optimal minimal medium for each pathogen. The media and growth conditions were described in Tables 2 and 3. MIC and MBC values were determined following the procedures described above. […] Fifty microliters of serially diluted peptides (2-fold the final concentration) were added in a 96-well polystyrene plate with 50 μL of the fungal spore suspension. […] The plates were incubated at an optimal temperature without shaking. […] MFC was determined as the lowest peptide concentration at which no fungal growth was observed.

[2] = system: Ralstonia solanacearum strain Pss190; conditions: Rs Pss190; optimal minimal medium, crude peptides (Table 9)
[3] = system: bacteria, fungal spores, and fungal mycelia; type: cell-based; conditions: SYTOX Green, crude peptides, room temperature in dark for 2 h
[4] = system: Botrytis cinerea; type: cell-based
Protocol: as §1

[5] = system: Bc; assay: In planta pathogen inoculation assay, lesion diameter; type: in vivo, Botrytis cinerea; conditions: detached leaves of tomato L390 and leaves of Arabidopsis Col0; final peptide concentration 16 μg/mL; 47 to 70 hours post-inoculation
[6] = system: Pcc; assay: as above; type: in vivo, Pectobacterium carotovorum subsp. carotovorum; conditions: detached leaves of tomato L390 and leaves of Arabidopsis Col0; final peptide concentration 16 μg/mL; 16 to 28 hours post-inoculation
[7] = system: Ralstonia solanacearum strain Pss4; conditions: Rs Pss4; optimal minimal medium, crude peptides (Table 9)
[8] = system: Erwinia chrysanthemi; type: cell-based
Protocol: (§2) The effect of peptide length on the antimicrobial activity was investigated by deciding the minimal inhibitory concentration (MIC) and minimal bactericidal concentration (MBC) for each peptide against the pathogen with the media and growth conditions of phytopathogenic bacteria and E. coli as described in Table 1. Single bacterial colony grown on an optimal rich agar medium was picked, and each grew in 3 mL of the same rich liquid medium for 4 to 6 h. For experiments carried out in the rich medium, the bacterial broth culture was then diluted in the same medium to give a final concentration of OD600=0.08, and then further diluted 100 folds in the same medium. For experiments carried out in the minimal medium, the bacterial cells were collected from the bacterial liquid culture by centrifugation, re-suspended in an optimal minimal medium to give a final concentration of OD600=0.08, and then further diluted 100 folds in the same minimal medium. Fifty microliters of serially diluted peptides (2-fold the final concentration) were added in a 96-well polystyrene plate with 50 μL of the bacterial culture. […] The plates were incubated at an optimal temperature without shaking. […] MBC was determined as the lowest peptide concentration at which no colonies formed. The experiments were conducted in an optimal minimal medium for each pathogen. The media and growth conditions were described in Tables 2 and 3. MIC and MBC values were determined following the procedures described above. […] Fifty microliters of serially diluted peptides (2-fold the final concentration) were added in a 96-well polystyrene plate with 50 μL of the fungal spore suspension.

[9] = system: Pectobacterium carotovorum subsp. carotovorum; type: cell-based
Protocol: as §2

[10] = system: Candida albicans 89 (echinocandin-resistant)
[11] = system: Candida albicans SC5314
[12] = system: Candida albicans 12-99 (fluconazole-resistant)
[13] = Circular dichroism spectroscopy, secondary structure deconvolution; conditions: dissolved in water, structural deconvolution of CD spectra
[14] = system: Xanthomonas oryzae pv. oryzae strain Xoo28; conditions: Xoo Xoo28; rich medium, 24 h, purified peptides
[15] = system: Xanthomonas campestris pv. campestris strain Xcc17; assay: IC50 of bacterial growth (OD600) in rich liquid medium; type: cell-based; conditions: Xcc Xcc17, 24 h, purified peptides
Protocol: (§3) To measure the antimicrobial activity, single colony grown on an optimal rich agar medium for each bacterium was picked and grew in 3 mL of the same rich liquid medium for 4 to 6 h. The bacterial culture was then diluted in the same medium to give a final concentration of OD600=0.08 and then further diluted […] in the same medium. In each well of a 96-well polystyrene plate, 90 μL of the diluted culture was mixed with 10 μL of the peptide to give a peptide concentration of 0, 2, 10, and 20 μg/mL (final cell concentration is 5×10^5 CFU/mL). OD600 was measured after incubation at an optimal temperature for 24 h. IC50 was determined as the lowest peptide concentration inhibiting 50% of bacterial growth.

[16] = system: Xanthomonas euvesicatoria strain Xvt28; assay: as above; type: cell-based; conditions: Xev Xvt28, 24 h, purified peptides
Protocol: as §3

[17] = system: Agrobacterium tumefaciens strain Atu C58C1; conditions: rich medium, 24 h, purified peptides
[18] = system: Escherichia coli strain DH5a; conditions: Eco DH5α; rich medium, 24 h, purified peptides
[19] = Candida albicans SC5314 (Tables 10, 14)

| Compound | MBC/MFC [2] [µg/mL] | MIC [2] [µg/mL] | membranolytic effect on the cell walls of bacteria, fungal spores, and fungal mycelia [3] | MBC/MFC [4] [µg/mL] | disease lesions caused by Bc [5] | disease lesions caused by Pcc [6] | MBC/MFC [7] [µg/mL] | MIC [7] [µg/mL] | MBC/MFC [8] [µg/mL] | MIC [8] [µg/mL] | MBC/MFC [9] [µg/mL] | MIC [9] [µg/mL] | other results |
| --- | --- | --- | --- | --- | --- | --- | --- | --- | --- | --- | --- | --- | --- |
| CCCCCCCCCCCCCC(=O)N[C@@H](Cc1c[nH]c2ccccc12)C(=O)N[C@@H](CCCCN)C(=O)N[C@@H](CCCCN)C(=O)N[C@@H](CC(C)C)C(=O)N[C@@H](CCCCN)C(=O)N[C@@H](CCCCN)C(=O)N[C@@H](CC(C)C)C(=O)N[C@@H](CC(C)C)C(=O)N[C@@H](CCCCN)C(=O)N[C@@H](CCCCN)C(=O)N[C@@H](CC(C)C)C(N)=O [pepD3M] (Myristoyl-WKKLKKLLKKL-NH2) | 14.0 (≈ 8.56 µM) | 12.0 (≈ 7.34 µM) | significant membranolytic effect | 6.0 (≈ 3.67 µM) | significantly reduced disease lesions | significantly reduced disease lesions | 12.0 (≈ 7.34 µM) | 8.0 (≈ 4.89 µM) | 6.0 (≈ 3.67 µM) | 5.0 (≈ 3.06 µM) | 4.0 (≈ 2.45 µM) | 4.0 (≈ 2.45 µM) | MBC/MFC [1]: 14.0 µg/mL (≈ 8.56 µM); MIC [1]: 14.0 µg/mL (≈ 8.56 µM); MIC [4]: 5.3 µg/mL (≈ 3.24 µM) |
| CCCCCCCCCCCCCC(=O)N[C@@H](Cc1c[nH]c2ccccc12)C(=O)N[C@@H](CCCCN)C(=O)N[C@@H](CCCCN)C(=O)N[C@@H](CC(C)C)C(=O)N[C@@H](CCCCN)C(=O)N[C@@H](CCCCN)C(=O)N[C@@H](CC(C)C)C(=O)N[C@@H](CC(C)C)C(=O)N[C@@H](CCCCN)C(=O)N[C@@H](CCCCN)C(=O)N[C@@H](CC(C)C)C(=O)N[C@@H](CCCCN)C(=O)N[C@@H](CCCCN)C(=O)N[C@@H](CC(C)C)C(N)=O [pepD2M] (Myristoyl-WKKLKKLLKKLKKL-NH2) | 8.0 (≈ 3.99 µM) | 8.0 (≈ 3.99 µM) | significant membranolytic effect | 12.0 (≈ 5.99 µM) | significantly reduced disease lesions | significantly reduced disease lesions | 10.0 (≈ 4.99 µM) | 8.0 (≈ 3.99 µM) | 6.0 (≈ 2.99 µM) | 4.0 (≈ 2 µM) | 4.0 (≈ 2 µM) | 4.0 (≈ 2 µM) | MFC [1]: 14.0 µg/mL (≈ 6.98 µM); MBC/MFC ([1]; Cgl FST02, optimal minimal medium, crude peptides (Table 9)): 16.0 µg/mL (≈ 7.98 µM); MFC [10]: 64 µg/mL (≈ 31.9 µM); MIC [10]: 32 µg/mL (≈ 16 µM); MFC [11, 19]: 64 µg/mL (≈ 31.9 µM); MIC [11, 19]: 32 µg/mL (≈ 16 µM); MFC [4]: 18.7 µg/mL (≈ 9.33 µM); MFC [12]: 64 µg/mL (≈ 31.9 µM); MIC [12]: 8 µg/mL (≈ 3.99 µM) |
| WKLLKLLLKLLKLLLKLL [pepA] | – | – | – | – | – | – | – | – | – | – | – | – | α-helix content [13]: over 90%; MIC ([11]; Candida albicans SC5314, 48 h at 35° C., 0.125 to 64 μg/mL (Table 5)): — (“—” indicates no antimicrobial activity being detected at the highest peptide concentration (64 μg/mL) tested.); IC50 [14]: — (“—” indicates no antimicrobial activity being detected at the highest peptide concentration (20 μg/mL) tested in this study.); IC50 [15]: — (“—” indicates no antimicrobial activity being detected at the highest peptide concentration (20 μg/mL) tested in this study.); IC50 [16]: — (“—” indicates no antimicrobial activity being detected at the highest peptide concentration (20 μg/mL) tested in this study.); IC50 [17]: — (“—” indicates no antimicrobial activity being detected at the highest peptide concentration (20 μg/mL) tested in this study.); IC50 [18]: — (“—” indicates no antimicrobial activity being detected at the highest peptide concentration (20 μg/mL) tested in this study.) |
